Results: PMC6627609, “Targeting Quorum Sensing: High-Throughput Screening to Identify Novel LsrK Inhibitors” (International Journal of Molecular Sciences, 2019)
pIC50: −log10 of the molar value. Counter-ions that a name gives are not always drawn.

Target: LsrK (Salmonella typhimurium, UniProt Q8ZKQ6)
Assay: biochemical
Assay type: biochemical, S. typhimurium
Settings: not given

LsrK, sequence (Q8ZKQ6 whole entry): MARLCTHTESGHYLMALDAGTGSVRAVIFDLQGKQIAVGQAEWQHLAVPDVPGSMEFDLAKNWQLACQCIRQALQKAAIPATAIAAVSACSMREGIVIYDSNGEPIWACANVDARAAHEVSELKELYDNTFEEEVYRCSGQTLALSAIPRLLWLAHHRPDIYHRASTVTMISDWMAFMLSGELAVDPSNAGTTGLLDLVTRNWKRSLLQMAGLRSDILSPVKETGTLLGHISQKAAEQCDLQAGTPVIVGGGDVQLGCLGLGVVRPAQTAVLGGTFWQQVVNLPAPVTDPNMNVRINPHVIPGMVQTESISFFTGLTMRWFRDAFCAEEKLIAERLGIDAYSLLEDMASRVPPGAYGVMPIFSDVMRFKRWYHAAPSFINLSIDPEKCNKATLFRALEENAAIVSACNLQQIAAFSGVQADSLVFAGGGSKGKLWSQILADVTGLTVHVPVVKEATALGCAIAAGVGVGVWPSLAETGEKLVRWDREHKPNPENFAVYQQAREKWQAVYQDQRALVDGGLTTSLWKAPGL

| Compound | inhibition at 50 µM [%] | pIC50 |
| --- | --- | --- |
| Cc1nc2sccn2c(=O)c1CCN1CCC(=C(c2ccc(F)cc2)c2ccc(F)cc2)CC1 [RITANSERIN] | 3 |  |
| CCC1(CC)C(=O)NC(=O)NC1=O [BARBITAL] | 1 |  |
| C[C@H]1[C@H]2CC[C@H]3[C@@H]4CC=C5C[C@@H](N(C)C)CC[C@]5(C)[C@H]4CC[C@]23CN1C [CONESSINE] | 2 |  |
| CC(C)[C@H]1CC[C@H](C(=O)N[C@H](Cc2ccccc2)C(=O)O)CC1 [NATEGLINIDE] | 1 |  |
| CC(C)OC(=O)C(C)(C)Oc1ccc(C(=O)c2ccc(Cl)cc2)cc1 [FENOFIBRATE] | 1 |  |
| C[C@H](N)[C@H](O)c1cccc(O)c1 [METARAMINOL BITARTRATE] | 9 |  |
| CCN(CC)C(=O)N1CCN(C)CC1 [DIETHYLCARBAMAZINE CITRATE] | 1 |  |
| O=[N+]([O-])c1cccc2cn[nH]c12 [7-NITROINDAZOLE] | 1 |  |
| CC1=CCc2c(cc3oc(C)cc(=O)c3c2O)OC1 [PTAEROXYLIN] | 1 |  |
| COc1ccc2c(c1)OC[C@@H](Cc1ccc(OC)c(OC)c1)[C@@H]2O [3-DESHYDRO[…] ETHER] | 3 |  |
| S=c1[nH]cnc2nc[nH]c12 [MERCAPTOPURINE] | 1 |  |
| OC1CCCCC1N1CCC(c2ccccc2)CC1 (centres unmarked) [VESAMICOL HYDROCHLORIDE] | 1 |  |
| O=C(O)CCCO [SODIUM OXYBATE] | 1 |  |
| CC(C)NCC(O)COc1ccc(COCCOC(C)C)cc1 (centres unmarked) [BISOPROLOL FUMARATE] | 0 |  |
| CCc1oc2ccccc2c1C(=O)c1cc(Br)c(O)c(Br)c1 [BENZBROMARONE] | 106 |  |
| Nc1ccc(C(=O)NCC(=O)O)cc1 [AMINOHIPPURIC ACID] | 1 |  |
| C=C1c2cccc(O)c2C(=O)C2=C(O)[C@]3(O)C(=O)C(C(N)=O)=C(O)[C@@H](N(C)C)[C@@H]3[C@@H](O)[C@H]12 [METHACYCLINE HYDROCHLORIDE] | 97 |  |
| NS(=O)(=O)c1cc2c(cc1Cl)NC(C(Cl)Cl)NS2(=O)=O (centres unmarked) [TRICHLORMETHIAZIDE] | 1 |  |
| COC(=O)N/N=C/c1c[n+]([O-])c2ccccc2[n+]1[O-] [CARBADOX] | 3 |  |
| C=C[C@H]1CN2CC[C@H]1C[C@H]2[C@H](O)c1ccnc2ccccc12 [CINCHONIDINE] | 0 |  |

| Compound | inhibition at 50 µM [%] | pIC50 |
| --- | --- | --- |
| CCCCC1C(=O)N(c2ccccc2)N(c2ccccc2)C1=O [PHENYLBUTAZONE] | 0 |  |
| CC(N)C(=O)OC(C)(C)Cc1ccc(Cl)cc1 (centres unmarked) [ALAPROCLATE] | 1 |  |
| CC(=O)O[C@H]1CC[C@]2(C)C(C[C@@H](OC(C)=O)[C@]3(C)C4=CC(=O)O[C@H](c5ccoc5)[C@@]4(C)CCC23)C1(C)C (stereo partly drawn) [3-DEOXO-3beta-ACETOXYDEOXYDIHYDROGEDUNIN] | 5 |  |
| Cc1c(OCC(F)(F)F)ccnc1C[S+]([O-])c1nc2ccccc2[nH]1 (centres unmarked) [LANSOPRAZOLE] | 33 |  |
| COc1cc([C@@H]2c3cc4c(cc3[C@@H](O[C@@H]3O[C@@H]5CO[C@@H](C)O[C@H]5[C@H](O)[C@H]3O)[C@H]3COC(=O)[C@H]23)OCO4)cc(OC)c1O [ETOPOSIDE] | 1 |  |
| CC1=CC(=O)C(C(C)C)=CC1=O [THYMOQUINONE] | 2 |  |
| Cc1ccc(/N=C/N(C)/C=N/c2ccc(C)cc2C)c(C)c1 [AMITRAZ] | 1 |  |
| CC(C)(C(=O)O)c1ccc(C(O)CCCN2CCC(C(O)(c3ccccc3)c3ccccc3)CC2)cc1 (centres unmarked) [FEXOFENADINE HYDROCHLORIDE] | 0 |  |
| CCN(CC)CCOC(=O)C(c1ccccc1)C1CCCCC1 (centres unmarked) [DROFENINE HYDROCHLORIDE] | 0 |  |
| CCN(CCCCOC(=O)c1ccc(OC)c(OC)c1)C(C)Cc1ccc(OC)cc1 (centres unmarked) [MEBEVERINE HYDROCHLORIDE] | 1 |  |
| COc1cc2nc(N3CCN(C(=O)C4CCCO4)CC3)nc(N)c2cc1OC (centres unmarked) [TERAZOSIN HYDROCHLORIDE] | 1 |  |
| CC(=O)OCC(=O)[C@@]1(O)CC[C@H]2[C@@H]3CCC4=CC(=O)CC[C@]4(C)[C@@]3(F)[C@@H](O)C[C@@]21C [FLUDROCORTISONE ACETATE] | 2 |  |
| Cc1onc(-c2c(Cl)cccc2Cl)c1C(=O)N[C@@H]1C(=O)N2[C@@H]1SC(C)(C)[C@@H]2C(=O)O [DICLOXACILLIN SODIUM] | 0 |  |
| CCCOc1ccc2nc(NC(=O)OC)[nH]c2c1 [OXIBENDAZOLE] | 2 |  |
| Cc1c(O)c(O)cc2c1CC=C1[C@@]2(C)CC[C@@]2(C)[C@@H]3C[C@](C)(C(=O)O)CC[C@]3(C)CC[C@]12C [DIHYDROCELASTROL] | 105 | 4.68 |
| CN1C[C@H](CNC(=O)OCc2ccccc2)C[C@@H]2c3cccc4c3c(cn4C)C[C@H]21 [METERGOLINE] | 3 |  |
| COc1ccc(-c2cc(=O)c3c(OC(C)=O)cc(OC(C)=O)cc3o2)cc1 [ACACETIN DIACETATE] | 0 |  |
| COc1ccc(C2CNC(=O)C2)cc1OC1CCCC1 (centres unmarked) [ROLIPRAM] | 1 |  |
| Clc1ccc(C(Cn2ccnc2)OCc2ccsc2Cl)c(Cl)c1 (centres unmarked) [TIOCONAZOLE] | 2 |  |
| C=CC(N)CCC(=O)O (centres unmarked) [VIGABATRIN] | 1 |  |

| Compound | inhibition at 50 µM [%] | pIC50 |
| --- | --- | --- |
| CC(C)c1cc2c(c(O)c1O)[C@@]1(C(=O)O)CCCC(C)(C)[C@@H]1CC2 [CARNOSIC ACID] | 2 |  |
| COC(=O)CC1C(C)(C)C(OC(C)=O)[C@@H]2[C@@H](OC(C)=O)[C@]34O[C@@]2(O)[C@]1(C)C3CC[C@]1(C)C4=CC(=O)O[C@H]1c1ccoc1 (some centres unmarked) [[…]] | 2 |  |
| Cn1c(=O)c2c(ncn2CC(O)CO)n(C)c1=O (centres unmarked) [DYPHYLLINE] | 1 |  |
| CCc1cn([C@H]2C[C@H](O)[C@@H](CO)O2)c(=O)[nH]c1=O [EDOXUDINE] | 0 |  |
| CC(C)COCC(CN(Cc1ccccc1)c1ccccc1)N1CCCC1 (centres unmarked) [BEPRIDIL HYDROCHLORIDE] | 18 |  |
| Oc1cc(O)c2c(c1)O[C@H](c1ccc(O)c(O)c1)[C@H](O)C2 [EPICATECHIN] | 2 |  |
| CN1CC(=O)N2[C@H](c3ccc4c(c3)OCO4)c3[nH]c4ccccc4c3C[C@@H]2C1=O | 1 |  |
| COC1=C(OC)C(=O)C(C/C=C(\C)CC/C=C(\C)CC/C=C(\C)CC/C=C(\C)CC/C=C(\C)CC/C=C(\C)CC/C=C(\C)CC/C=C(\C)CC/C=C(\C)CCC=C(C)C)=C(C)C1=O [UBIDECARENEONE] | 1 |  |
| O=C(O)c1cn(C2CC2)c2cc(N3CCNCC3)c(F)cc2c1=O [CIPROFLOXACIN] | 1 |  |
| CN1CCCN=C1/C=C/c1cccs1 [PYRANTEL PAMOATE] | 101 |  |
| CO[C@@]12[C@H](COC(N)=O)C3=C(C(=O)C(C)=C(N)C3=O)N1C[C@@H]1N[C@@H]12 [MITOMYCIN C] | 0 |  |
| Cc1ccc(S(=O)(=O)NCl)cc1 [TOSYL[…]] | 3 |  |
| Nc1nc(=O)c2[nH]c(=O)cnc2[nH]1 [XANTHOPTERIN] | 2 |  |
| CC(C)(C)NC(=O)[C@H]1CC[C@H]2[C@@H]3CC[C@H]4NC(=O)C=C[C@]4(C)[C@H]3CC[C@]12C [FINASTERIDE] | 1 |  |
| CN1CCC(=C2c3ccccc3CC(=O)c3sccc32)CC1 [KETOTIFEN FUMARATE] | 1 |  |
| CCOC(=O)c1cncn1[C@H](C)c1ccccc1 [ETOMIDATE] | 2 |  |
| Cc1c(Cl)cccc1Nc1ccccc1C(=O)O [TOLFENAMIC ACID] | 97 |  |
| CCOc1ccc2ccccc2c1C(=O)N[C@@H]1C(=O)N2[C@@H]1SC(C)(C)[C@@H]2C(=O)O [NAFCILLIN SODIUM] | 23 |  |
| O=C(/C=C/C=C/c1ccc2c(c1)OCO2)N1CCCCC1 [PIPERINE] | 1 |  |

Same assay, conditions: 50 µM

| Compound | Inhibition (%) |
| --- | --- |
| CCOC(=O)c1ncn2c1CN(C)C(=O)c1cc(F)ccc1-2 [FUMAZENIL] | 0 |
| COc1ccc(/C=C/C(=O)c2ccc(O)cc2O)cc1 [2'.4'-DIHYDROXY-4-METHOXYCHALCONE] | 2 |
| BERBAMINE HYDROCHLORIDE | 1 |
| O=c1cc(-c2ccccc2)oc2c(O)c(O)ccc12 [7.8-DIHYDROXYFLAVONE] | 5 |
| CC(=O)O[C@H]1CC[C@]2(C)C3=C(CC[C@H]2C1(C)C)[C@]1(C)CC[C@H]([C@H](C)CCC=C(C)C)[C@@]1(C)CC3 [LANOSTEROL ACETATE] | 1 |
| Cl.c1ccc(C2CN3CCSC3=N2)cc1 (centres unmarked) [TETRAMIZOLE HYDROCHLORIDE] | 22 |
| O=C([O-])C1=C(CSc2nnnn2CS(=O)(=O)[O-])CS[C@@H]2[C@H](NC(=O)[C@H](O)c3ccccc3)C(=O)N12.[Na+].[Na+] [CEFONICID SODIUM] | 0 |
| Cc1occc(=O)c1O [LARIXINIC ACID] | 1 |
| O=C(CNC(=O)c1ccc(Cl)cc1)NO [BENURESTAT] | 3 |
| COc1cc(O)c(C(=O)/C=C/c2ccc(O)c(OC)c2)c(OC)c1 [2'.4-DIHYDROXY-3.4'.6'-TRIMETHOXYCHALCONE] | 1 |
| NC(C(=O)O)C(O)C(=O)O (stereo not drawn) [d.l-threo-3-HYDROXYASPARTIC ACID] | 3 |
| Cc1c(N(C)CS(=O)(=O)[O-])c(=O)n(-c2ccccc2)n1C.[Na+] [DIPYRONE] | 2 |
| COc1cc(O)c(C(C)=O)c(O)c1 [4-O-METHYLPHLORACETOPHENONE] | 2 |
| CC(=O)O[C@@H]1C[C@]2(C)[C@@H](C(C)=O)CC[C@H]2[C@@H]2CCC3=CC(=O)CC[C@]3(C)[C@H]21 [11a-ACETOXYPROGESTERONE] | 23 |
| NC(N)=NC(=O)c1nc(Cl)c(N2CCCCCC2)nc1N [N.N-HEXAMETHYLENEAMILORIDE] | 1 |
| c1ccc2c(Cc3c[nH]c4ccccc34)c[nH]c2c1 [3.3'-DIINDOLYLMETHANE] | 0 |
| C=C[C@@](C)(O)CC[C@H]1C(=C)C[C@H](O)[C@H]2C(C)(C)CCC[C@]12C [LARIXOL] | 1 |
| CCCCS(=N)(=O)CCC(N)C(=O)O [L-BUTHIONINE SULFOXIMINE] | 20 |
| Cl.c1cnc(N2CCN(Cc3ccc4c(c3)OCO4)CC2)nc1 [PIRIBEDIL HYDROCHLORIDE] | 3 |
| COC[C@]12CN(C=O)[C@@H]3[C@@H]4[C@H](OC)[C@H]1[C@@]3([C@@H](OC)C[C@H]2O)[C@@H]1C[C@@]2(O)[C@H](OC(=O)c3ccccc3)[C@@H]1[C@]4(OC(C)=O)[C@@H](O)[C@@H]2OC [OXONITINE] | 0 |
